Reference: patent US20150038527A1, “FUROPYRIDINE DERIVATIVES” (Merck Patent GmbH, priority 2012, published 2015)

What was measured:
RA = RA Phase II studies in humans; cited from earlier work
murine model of RA = conditions: cited from earlier work
SYK = molecular target: T1, SYK (Homo sapiens, UniProt P43405); assay: SYK Flash Plate Assay (enzyme assay); assay type: biochemical
T1 construct: 2.5 nM SYK, 400 nM Biotin-Aha-Aha-KEDPDYEWPSAKK and 10 μM ATP

SMILES	IC50 (SYK) [µM]	other results
COc1cc(Nc2ncc(F)c(Nc3ccc4c(n3)NC(=O)C(C)(C)O4)n2)cc(OC)c1OC [Compound R406]	–	efficacy (ACR scores) (RA): efficacy (ACR scores improvement); tolerability (RA): good tolerability; bone erosion (murine model of RA): significantly reduced; clinical scores (murine model of RA): significant improvement of clinical scores; serum cytokine concentrations (murine model of RA): significantly reduced serum cytokine concentrations
COc1cc(-c2cc3nccc(-c4cc(C)cc(C(=O)NCCCN)c4)c3o2)cc(OC)c1OC [Compound A57, N-(3-amino-propyl)-3-methyl-5-[2-(3,4,5-trimethoxy-phenyl)-furo[3,2-b]pyridin-7-yl]-benzamide]	0.3 to 3	–
CCc1ccc(OC)cc1-c1cc2nccc(-c3ccc4[nH]cnc4c3)c2o1 [Compound A36, 7-(1H-benzoimidazol-5-yl)-2-(2-ethyl-5-methoxy-phenyl)-furo[3,2-b]pyridine]	3 to 50	–
Cc1cc(OCCN)ccc1-c1cc2nccc(-c3cccc(C(=O)N[C@@H]4CCCC[C@@H]4N)c3)c2o1 [Compound A52, N-((1R,2S)-2-amino-cyclohexyl)-3-{2-[4-(2-amino-ethoxy)-2-methyl-phenyl]-furo[3,2-b]pyridin-7-yl}-benzamide]	0.3 to 3	–
COc1cc(-c2cc3nccc(-c4ccc(O)nc4)c3o2)cc(OC)c1OC [Compound A38, 5-[2-(3,4,5-trimethoxy-phenyl)-furo[3,2-b]pyridin-7-yl]-pyridin-2-ol]	0.3 to 3	–
COc1cc(-c2cc3nccc(-c4cc(F)cc(C(=O)NCCN)c4)c3o2)cc(OC)c1OC [Compound A55, N-(2-amino-ethyl)-3-fluoro-5-[2-(3,4,5-trimethoxy-phenyl)-furo[3,2-b]pyridin-7-yl]-benzamide]	0.1 to 0.3	–
COc1cc(-c2cc3nccc(-c4cccc(C(=O)N[C@H]5C[C@@H](N)C5)c4)c3o2)cc(OC)c1OC [Compound A27, N-(3-amino-cyclobutyl)-3-[2-(3,4,5-trimethoxy-phenyl)-furo[3,2-b]pyridin-7-yl]-benzamide]	0.3 to 3	–
COc1ccc(C(=O)O)cc1-c1cc2nccc(-c3c(OC)cccc3OC)c2o1 [Compound A66, 3-[7-(2,6-dimethoxy-phenyl)-furo[3,2-b]pyridin-2-yl]-4-methoxy-benzoic acid]	0.3 to 3	–
COc1cccc(OC)c1-c1ccnc2cc(-c3cc(C(N)=O)ccc3C(C)C)oc12 [Compound A74, 3-[7-(2,6-dimethoxy-phenyl)-furo[3,2-b]pyridin-2-yl]-4-isopropyl-benzamide]	3 to 50	–
COc1ccc(-c2noc(=O)[nH]2)cc1-c1cc2nccc(-c3cc[nH]n3)c2o1 [Compound A105, 3-{4-methoxy-3-[7-(1H-pyrazol-3-yl)-furo[3,2-b]pyridin-2-yl]-phenyl}-4H-[1,2,4]oxadiazol-5-one]	< 0.1	–
COc1ccc(C(N)=O)cc1-c1cc2nccc(-c3c(OC)cncc3OC)c2o1 [Compound A104, 3-[7-(3,5-dimethoxy-pyridin-4-yl)-furo[3,2-b]pyridin-2-yl]-4-methoxybenzamide]	0.1 to 0.3	–
COc1ccc(C(N)=O)cc1-c1cc2nccc(-c3cnc(F)cc3C)c2o1 [Compound A54, 3-[7-(6-fluoro-4-methyl-pyridin-3-yl)-furo[3,2-b]pyridin-2-yl]-4-methoxybenzamide]	3 to 50	–
COc1ccc(C(N)=O)cc1-c1cc2nccc(-c3cc(C(N)=O)ccc3OC)c2o1 [Compound A31, 3-[2-(5-carbamoyl-2-methoxy-phenyl)furo[3,2-b]pyridin-7-yl]-4-methoxybenzamide]	0.3 to 3	–
